From PMC9403545, “Structure based design of effective HtpG-derived vaccine antigens against M. tuberculosis” (Frontiers in Molecular Biosciences, 2022)

Biological target: T1, HtpGMtb (Mycobacterium tuberculosis, UniProt P9WMJ7)
T1 construct: gene htpG; full-length wild type, recombinant in E. coli BL21(DE3), Ni-NTA and SEC, further ion exchange to remove nucleic acid; homodimer
Assay: biochemical
Format: binding

T1 sequence (P9WMJ7 whole entry): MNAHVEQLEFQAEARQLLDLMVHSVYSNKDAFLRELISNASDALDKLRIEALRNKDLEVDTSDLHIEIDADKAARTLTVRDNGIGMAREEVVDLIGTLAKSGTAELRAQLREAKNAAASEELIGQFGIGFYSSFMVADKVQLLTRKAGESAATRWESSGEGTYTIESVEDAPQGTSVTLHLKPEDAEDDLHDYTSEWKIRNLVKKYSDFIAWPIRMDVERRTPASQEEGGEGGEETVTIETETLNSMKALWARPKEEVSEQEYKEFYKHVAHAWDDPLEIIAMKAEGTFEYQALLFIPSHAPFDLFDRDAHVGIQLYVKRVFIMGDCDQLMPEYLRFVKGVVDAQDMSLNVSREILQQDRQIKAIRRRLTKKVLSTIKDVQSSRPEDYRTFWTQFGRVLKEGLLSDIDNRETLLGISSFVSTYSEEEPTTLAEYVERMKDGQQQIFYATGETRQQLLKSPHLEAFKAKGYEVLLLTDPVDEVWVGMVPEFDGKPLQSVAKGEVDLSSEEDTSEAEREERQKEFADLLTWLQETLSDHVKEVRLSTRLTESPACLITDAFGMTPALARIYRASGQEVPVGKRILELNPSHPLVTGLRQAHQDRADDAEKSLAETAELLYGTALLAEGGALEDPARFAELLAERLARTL

Compound	Kd
Nc1ncnc2c1ncn2[C@@H]1O[C@H](COP(=O)(O)OP(=O)(O)O)[C@@H](O)[C@H]1O [ADP]	34 µM
Nc1ncnc2c1ncn2[C@@H]1O[C@H](COP(=O)(O)OP(=O)(O)NP(=O)(O)O)[C@@H](O)[C@H]1O [AMP-PNP]	45.4 µM
